System: HCT116 colorectal cancer cells
Assay: Cisplatin sensitization assay (96 h cell viability MTS);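 note: compound concentration needed to lower the Cisplatin-alone IC50 by a set fold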
Assay type: cell-based
Settings: 96 h MTS, compound plus Cisplatin
Procedure, shortened: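 HCT116 cells were co-treated with compound and cisplatin, each in 2-fold serial dilutions from a 10 μM top final concentration, as a full matrix. After 96 h at 37 °C, 5% CO2, viability was read by MTS following a 1 h incubation with reagent.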

Structure (SMILES) | Cisplatin Sensitization Assay
Nc1nn2cc(F)cnc2c1C(=O)Nc1cncc(F)c1N1CCN(C2CCOC2)CC1 (stereo not shown) [I-N-122, 2-amino-6-fluoro-N-(5-fluoro-4-(4-(tetrahydrofuran-3-yl)piperazin-1-yl)pyridin-3-yl)pyrazolo[1,5-a]pyrimidine-3-carboxamide] | ++ (Compounds with a Cisplatin sensitization value >0.02 μM but <0.2 μM are marked with “++.”)
Nc1nn2cc(F)cnc2c1C(=O)Nc1cncc(F)c1N1CCC(C(=O)N2CC(N3CCCCC3)C2)CC1 [I-G-57, 2-amino-6-fluoro-N-(5-fluoro-4-(4-(3-(piperidin-1-yl)azetidine-1-carbonyl)piperidin-1-yl)pyridin-3-yl)pyrazolo[1,5-a]pyrimidine-3-carboxamide] | +++ (Compounds with a Cisplatin sensitization value of <0.02 μM are marked with “+++.”)
CN1CCN(c2c(Cl)cncc2NC(=O)c2c(N)nn3cc(Cl)cnc23)CC1 [I-N-41, 2-amino-6-chloro-N-(5-chloro-4-(4-methylpiperazin-1-yl)pyridin-3-yl)pyrazolo[1,5-a]pyrimidine-3-carboxamide] | +++ (Compounds with a Cisplatin sensitization value of <0.02 μM are marked with “+++.”)
N#CC1CN(C(=O)C2CCN(c3ccncc3NC(=O)c3c(N)nn4cc(F)cnc34)CC2)C1 [I-G-81, 2-amino-N-(4-(4-(3-cyanoazetidine-1-carbonyl)piperidin-1-yl)pyridin-3-yl)-6-fluoropyrazolo[1,5-a]pyrimidine-3-carboxamide] | +++ (Compounds with a Cisplatin sensitization value of <0.02 μM are marked with “+++.”)
CS(=O)(=O)N1CCN(c2ccncc2NC(=O)c2c(N)nn3cc(F)cnc23)CC1 [I-N-178, 2-amino-6-fluoro-N-(4-(4-(methylsulfonyl)piperazin-1-yl)pyridin-3-yl)pyrazolo[1,5-a]pyrimidine-3-carboxamide] | +++ (Compounds with a Cisplatin sensitization value of <0.02 μM are marked with “+++.”)
Nc1nn2cc(Cl)cnc2c1C(=O)Nc1cnccc1N1CCC(N2CCn3ccnc3C2)CC1 [I-N-102, 2-amino-6-chloro-N-(4-(4-(5,6-dihydroimidazo[1,2-a]pyrazin-7(8H)-yl)piperidin-1-yl)pyridin-3-yl)pyrazolo[1,5-a]pyrimidine-3-carboxamide] | ++ (Compounds with a Cisplatin sensitization value >0.02 μM but <0.2 μM are marked with “++.”)
CC1(C)CCCN1c1ccncc1NC(=O)c1c(N)nn2cc(F)cnc12 [I-N-220, 2-amino-N-(4-(2,2-dimethylpyrrolidin-1-yl)pyridin-3-yl)-6-fluoropyrazolo[1,5-a]pyrimidine-3-carboxamide] | ++ (Compounds with a Cisplatin sensitization value >0.02 μM but <0.2 μM are marked with “++.”)
CN1CC[C@@H](OC2CCN(c3c(F)cncc3NC(=O)c3c(N)nn4cc(F)cnc34)CC2)C1 [I-N-132, (R)-2-amino-6-fluoro-N-(5-fluoro-4-(4-((1-methylpyrrolidin-3-yl)oxy)piperidin-1-yl)pyridin-3-yl)pyrazolo[1,5-a]pyrimidine-3-carboxamide] | +++ (Compounds with a Cisplatin sensitization value of <0.02 μM are marked with “+++.”)
CN(C)C(=O)C1CN(c2ccncc2NC(=O)c2c(N)nn3cc(F)cnc23)CCO1 (stereo not shown) [I-N-234, 4-(3-(2-amino-6-fluoropyrazolo[1,5-a]pyrimidine-3-carboxamido)pyridin-4-yl)-N,N-dimethylmorpholine-2-carboxamide] | + (Compounds with a Cisplatin sensitization value >0.2 μM but <5 μM are marked with “+.”)
CC(C)N1CCCC1C(=O)N1CCN(c2c(F)cncc2NC(=O)c2c(N)nn3cc(F)cnc23)CC1 (stereo not shown) [I-N-205, 2-amino-6-fluoro-N-(5-fluoro-4-(4-(1-isopropylpyrrolidine-2-carbonyl)piperazin-1-yl)pyridin-3-yl)pyrazolo[1,5-a]pyrimidine-3-carboxamide] | ++ (Compounds with a Cisplatin sensitization value >0.02 μM but <0.2 μM are marked with “++.”)
Cc1ncn(-c2ccncc2NC(=O)c2c(N)nn3cc(F)cnc23)n1 [I-N-161, 2-amino-6-fluoro-N-(4-(3-methyl-1H-1,2,4-triazol-1-yl)pyridin-3-yl)pyrazolo[1,5-a]pyrimidine-3-carboxamide] | + (Compounds with a Cisplatin sensitization value >0.2 μM but <5 μM are marked with “+.”)
CN1CCN(c2ccncc2NC(=O)c2c(N)nn3cc(Cl)cnc23)CC1(C)C [I-N-53, 2-amino-6-chloro-N-(4-(3,3,4-trimethylpiperazin-1-yl)pyridin-3-yl)pyrazolo[1,5-a]pyrimidine-3-carboxamide] | ++ (Compounds with a Cisplatin sensitization value >0.02 μM but <0.2 μM are marked with “++.”)
Nc1nn2cc(F)cnc2c1C(=O)Nc1cnccc1N1CCC(C(=O)N2CC3(COC3)C2)CC1 [I-G-88, N-(4-(4-(2-oxa-6-azaspiro[3.3]heptane-6-carbonyl)piperidin-1-yl)pyridin-3-yl)-2-amino-6-fluoropyrazolo[1,5-a]pyrimidine-3-carboxamide] | +++ (Compounds with a Cisplatin sensitization value of <0.02 μM are marked with “+++.”)
CC(=O)N1CCN(c2c(F)cncc2NC(=O)c2c(N)nn3cc(F)cnc23)CC1 [I-N-275, N-(4-(4-acetylpiperazin-1-yl)-5-fluoropyridin-3-yl)-2-amino-6-fluoropyrazolo[1,5-a]pyrimidine-3-carboxamide] | +++ (Compounds with a Cisplatin sensitization value of <0.02 μM are marked with “+++.”)
Cn1ncnc1-c1ccncc1NC(=O)c1c(N)nn2cc(F)cnc12 [I-C-65, 2-amino-6-fluoro-N-(4-(1-methyl-1H-1,2,4-triazol-5-yl)pyridin-3-yl)pyrazolo[1,5-a]pyrimidine-3-carboxamide] | ++ (Compounds with a Cisplatin sensitization value >0.02 μM but <0.2 μM are marked with “++.”)
COCCN1CCC[C@H](Oc2ccncc2NC(=O)c2c(N)nn3cc(Cl)cnc23)C1 [I-O-67, (S)-2-amino-6-chloro-N-(4-((1-(2-methoxyethyl)piperidin-3-yl)oxy)pyridin-3-yl)pyrazolo[1,5-a]pyrimidine-3-carboxamide] | ++ (Compounds with a Cisplatin sensitization value >0.02 μM but <0.2 μM are marked with “++.”)
Nc1nn2cc(Cl)cnc2c1C(=O)Nc1cnccc1N1CCN(C2CC2)CC1 [I-N-64, 2-amino-6-chloro-N-(4-(4-cyclopropylpiperazin-1-yl)pyridin-3-yl)pyrazolo[1,5-a]pyrimidine-3-carboxamide] | +++ (Compounds with a Cisplatin sensitization value of <0.02 μM are marked with “+++.”)
Cc1cncc(NC(=O)c2c(N)nn3cc(F)cnc23)c1-n1nccc1C [I-N-237] | + (Compounds with a Cisplatin sensitization value >0.2 μM but <5 μM are marked with “+.”)
Nc1nn2cc(F)cnc2c1C(=O)Nc1cnccc1O[C@H]1CCCN(C2COC2)C1 [I-O-9, (S)-2-amino-6-fluoro-N-(4-((1-(oxetan-3-yl)piperidin-3-yl)oxy)pyridin-3-yl)pyrazolo[1,5-a]pyrimidine-3-carboxamide] | ++ (Compounds with a Cisplatin sensitization value >0.02 μM but <0.2 μM are marked with “++.”)
